Marks after values point to notes of the source that are not given here.
Tests used:
fecal microbiota = test: Fecal microbiota 16S rRNA sequencing (ANOSIM, SIMPER); type: in vivo, mice
small intestinal mucosa = test: RNA sequencing (RNA-Seq) of the distal small intestinal mucosa; type: in vivo, mice
Source text: Eight- to 10-week-old specific-pathogen-free C57BL/6J mice were purchased and allowed to acclimate for 2 weeks. Mice were fed standardized laboratory rodent diet and sterile water ad libitum. Mice were randomly divided into the following 4 groups (n=5 mice/group): 1) NSAID (indomethacin); 2) indole; 3) NSAID+indole; and, 4) untreated controls. Mice were then rehoused on the basis of treatment group assignment, with 5 animals/group-cage. To induce NSAID enteropathy, mice in group 1 were gavaged once daily with indomethacin (5 mg/kg; for 7 days; Sigma Aldrich, St. Louis, Mo.) dissolved in dimethylysulfoxide (DMSO) (Sigma Aldrich, St. Louis, Mo.) and further diluted in phosphate buffered saline (PBS). Mice in group 2 received indole by gavage (20 mg/kg; once daily for 7 days; Sigma Aldrich, St. Louis, Mo.) dissolved in sterile water warmed to 55° C. Mice in group 3 received indole co-administered with indomethacin by gavage at the dosages described above. All mice were gavaged with equal volumes (200 μL) and equal concentrations of DMSO (0.001%).
Feces were collected daily by placing individual animals in sterile plastic cups that were RNase- and DNase-free until they passed feces. The mice were immediately returned to their home cages and the feces immediately flash frozen at −80° C. […]
RNA was extracted from the mucosal scrapings using an RNeasy mini kit (QIAGEN, Redwood City, Calif.) following the manufacturer's instructions and including on-column DNase treatment. RNA quantity was determined using a Nanodrop spectrophotometer (Fisher Thermoscientific) and the quality was assessed using the Nano6000 chip on a Bioanalyzer 2100(Agilent Technologies). […] Differentially expressed genes were determined using EdgeR based on the matrix of gene counts (Robinson M D, McCarthy D J, Smyth G K. edgeR: a Bioconductor package for differential expression analysis of digital gene expression data. Bioinformatics (Oxford, England) 2010; 26:139-40). Gene lists were analyzed through use of QIAGEN's Ingenuity® Pathway Analysis (IPA, QIAGEN, Redwood City, Calif. http://www.qiagen.com/ingenuity). […]

[1] = unweighted Unifrac distance metric, day 7

COc1ccc2c(c1)c(CC(=O)O)c(C)n2C(=O)c1ccc(Cl)cc1 [NSAID, indomethacin]
members of the Bacteroidales S24-7 family (fecal microbiota; SIMPER, day 7 feces): gain | mean % abundance (fecal microbiota; family Unassigned, Other, day 7 feces): 0.00317% | mean % abundance (fecal microbiota; family c_Bacilli, Other, day 7 feces): 0% | mean % abundance (fecal microbiota; family o_Actinomycetales, f_Micrococcaceae, day 7 feces): 0.00951% | mean % abundance (fecal microbiota; family o_Anaeroplasmatales, f_Anaeroplasmataceae, day 7 feces): 0.0317% | mean % abundance (fecal microbiota; family o_Bacillales, Other, day 7 feces): 0.019% | mean % abundance (fecal microbiota; family o_Bacillales, f_Bacillaceae, day 7 feces): 0.00317% | mean % abundance (fecal microbiota; family o_Bacillales, f_Staphylococcaceae, day 7 feces): 0.019% | mean % abundance (fecal microbiota; family o_Bacteroidale, f_Bacteroidaceae, day 7 feces): 0.00634% | mean % abundance (fecal microbiota; family o_Bacteroidales, f_Prevotellaceae, day 7 feces): 0.00317% | mean % abundance (fecal microbiota; family o_Bacteroidales, f_S24-7, day 7 feces): 81.2% | mean % abundance (fecal microbiota; family o_Clostridiales, Other, day 7 feces): 0.00317% | mean % abundance (fecal microbiota; family o_Clostridiales, f_ (unnamed), day 7 feces): 7.67% | mean % abundance (fecal microbiota; family o_Clostridiales, f_Clostridiaceae, day 7 feces): 1.68% | mean % abundance (fecal microbiota; family o_Clostridiales, f_Dehalobacteriaceae, day 7 feces): 0.00634% | mean % abundance (fecal microbiota; family o_Clostridiales, f_Lachnosoiraceae, day 7 feces): 1.31% | mean % abundance (fecal microbiota; family o_Clostridiales, f_Ruminococcaceae, day 7 feces): 3.53% | mean % abundance (fecal microbiota; family o_Clostridiales, f_[Mogibacteriaceae], day 7 feces): 0.00634% | mean % abundance (fecal microbiota; family o_Coriobacteriales, f_Coriobacteriaceae, day 7 feces): 0.0381% | mean % abundance (fecal microbiota; family o_Cytophagales, f_Cytophagacae, day 7 feces): 0% | mean % abundance (fecal microbiota; family o_Erysipelotrichales, f_Erysipelotrichaceae, day 7 feces): 0.136% | mean % abundance (fecal microbiota; family o_Lactobacillales, f_Aerococcaceae, day 7 feces): 0% | mean % abundance (fecal microbiota; family o_Lactobacillales, f_Enterococcaceae, day 7 feces): 0.171% | mean % abundance (fecal microbiota; family o_Lactobacillales, f_Lactobacillaceae, day 7 feces): 2.48% | mean % abundance (fecal microbiota; family o_Lactobacillales, f_Streptococcaceae, day 7 feces): 0% | mean % abundance (fecal microbiota; family o_RF 39, f_ (unnamed), day 7 feces): 1.62% | mean % abundance (fecal microbiota; family o_Turicibacterales, f_Turicibacteraceae, day 7 feces): 0.0412% | abundance of members of the phyla Firmicutes and Bacteroidetes (fecal microbiota; fecal 16S rRNA sequences, Day 0 vs Day 7): no significant difference | mean % abundance (fecal microbiota; mouse, in vivo): 0% | mean % abundance (fecal microbiota; order Unassigned, Other, day 7 feces): 0.00317% | mean % abundance (fecal microbiota; order c_Mollicutes, o_RF39, day 7 feces): 1.62% | mean % abundance (fecal microbiota; order o_Actinomycetales, day 7 feces): 0.00951% | mean % abundance (fecal microbiota; order o_Anaeroplasmatales, day 7 feces): 0.0317% | mean % abundance (fecal microbiota; order o_Bacillales, day 7 feces): 0.0412% | mean % abundance (fecal microbiota; order o_Bacteroidales, day 7 feces): 81.2% | mean % abundance (fecal microbiota; order o_Clostridiales, day 7 feces): 14.2% | mean % abundance (fecal microbiota; order o_Coriobacteriales, day 7 feces): 0.0381% | mean % abundance (fecal microbiota; order o_Cytophagales, day 7 feces): 0% | mean % abundance (fecal microbiota; order o_Erysipelotrichales, day 7 feces): 0.136% | mean % abundance (fecal microbiota; order o_Lactobacillales, day 7 feces): 2.65% | mean % abundance (fecal microbiota; order o_Turicibacterales, day 7 feces): 0.0412% | mean % abundance (fecal microbiota; order p_Firmicutes, c_Bacilli, Other, day 7 feces): 0% | mean % abundance (fecal microbiota; phylum Unassigned, Other, day 7 feces): 0.00317% | mean % abundance (fecal microbiota; phylum k_Bacteria, Other, day 7 feces): 0% | mean % abundance (fecal microbiota; phylum k_Bacteria, p_Acidobacteria, day 7 feces): 0.00317% | mean % abundance (fecal microbiota; phylum k_Bacteria, p_Actinobacteria, day 7 feces): 0.0476% | mean % abundance (fecal microbiota; phylum k_Bacteria, p_Bacteroidetes, day 7 feces): 81.2% | mean % abundance (fecal microbiota; phylum k_Bacteria, p_Cyanobacteria, day 7 feces): 0.00634% | mean % abundance (fecal microbiota; phylum k_Bacteria, p_Firmicutes, day 7 feces): 17.1% | mean % abundance (fecal microbiota; phylum k_Bacteria, p_Proteobacteria, day 7 feces): 0.00317% | mean % abundance (fecal microbiota; phylum k_Bacteria, p_Tenericutes, day 7 feces): 1.66% | mean % abundance (fecal microbiota; phylum k_Bacteria, p_Verrucomicrobia, day 7 feces): 0% | Pairwise ANOSIM R-value vs Control (fecal microbiota; [1]): 0.5487* | Pairwise ANOSIM R-value vs Indole (fecal microbiota; [1]): 0.2615 | Pairwise ANOSIM R-value vs NSAID + Indole (fecal microbiota; [1]): 0.4444 | NF-κB signaling pathway activation (small intestinal mucosa; RNA-Seq pathway analysis of mucosal scrapings): activated | transcription of pro-inflammatory cytokines (IL-1α, IL-1β, TNF, IL-6) and chemokines (CXCL1, CXCL3, CXCL2, CXCL5, CCL2, CCL7) (small intestinal mucosa; small intestinal mucosal transcriptome after 7 days, vs control mice): significantly up-regulated

— patent publication US20190083462A1, “PREVENTION OF NSAID ENTEROPATHY WITH MICROBIOTA-DERIVED TRYPTOPHAN-METABOLITE” (THE TEXAS A&M UNIVERSITY SYSTEM, priority 2016, published 2019)
